# Results from patent US11459356B2, “Neuronal nicotinic acetylcholine receptor-targeting polypeptide and use thereof” (priority 2021, dated 2022).
# Positions of bridges follow the written chain, without caps; N, C: chain ends. No end group written: not given here.
# Test system: human nAChR
# Assay: Calcium response of nAChR-overexpressing CN21 cells pre-incubated with polypeptide
# Type: cell-based
# Conditions: CN21 cells expressing human nAChR; polypeptide 10^-11-10^-5 M; 6 hours incubation; FIG. 5
# Procedure: The bioactivity of polypeptide nAChR_BP was assessed by using […] expressing human nAChR. The CN21 cells were incubated in 12-well plates one day prior. After 25 hours of incubation, the media were removed and new media containing various concentrations (10^−11-10^−5 M) of the polypeptide were added to incubate the cells. Six hours later, concentrations of calcium ion were measured using a kit, such that the activity of nAChR_BP was determined in vitro by assessing the antagonism of the nAChR mediated increase of [Ca2+] in CN21 cells.
substance,measurement,value
"nAChR_BP: novel polypeptide with amino acid sequence of SEQ ID NO: 1 that targets neuronal nicotinic acetylcholine receptor (ACCLFNCHSWVGC; disulfide 2-13, 3-7)",antagonism of the nAChR mediated increase of [Ca2+] in CN21 cells,capable of significantly inhibiting nAChRs
